The values below come from PubChem BioAssay AID743396 (Broad Institute, 2014).

Calls of active or inactive are those of the source.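 The calls were made as follows: active = fitted curve reaches a 40% rise in fluorescent cells at or below the top valid dose; inactive = opposite-direction effect, or the rest.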

One assay is described as follows: autofluorescent compounds in non-GFP fibroblasts, dose response, artefact control for X-chromosome reactivation project, imaging, mTEFS fibroblasts, cherry-pick (AID 743396).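 Also: raw share of Hoechst-counted cells scored GFP positive without control normalization.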 The following applies: mTEFS fibroblasts autofluorescence, GFP-channel imaging, 3 days; at 19.5 µM (top of the series).
As for `O=C(Cc1ccccn1)N1CCCCN2[C@H](C1)[C@@H](c1ccc(-c3ccccc3F)cc1)[C@@H]2CO`, the % fluorescent cells increase is 0.674% (inactive). Regarding `COCCCn1c(N)c(C(=O)Nc2ccccc2)c2nc3ccccc3nc21`, the % fluorescent cells increase was 0.01% (inactive).

Regarding `C[n+]1c(-c2ccccc2)c2cc(N)ccc2c2ccc(N)cc21`, the % fluorescent cells increase was 0.212% (inactive).

Still in this assay, the particulars now being: mTEFS fibroblasts autofluorescence, GFP-channel imaging, 3 days; at 19.5 µM (top of the series); cells pretreated with 5-aza-dC.
In the case of `CC[C@]12c3[nH]c4cc(CCC(=O)N(C)C)ccc4c3CCN1C(=O)[C@@H](CC(=O)NCCC1=CCCCC1)C[C@@H]2C(=O)N1CCN(C(=O)c2ccco2)CC1`, the % fluorescent cells increase is 0.051% (inactive). Consider `CCOC(=O)Cc1csc(NC(=O)Nc2ccc(F)cc2)n1`, for which the % fluorescent cells increase was 0% (inactive). Still for that read-out and setting: with `Cc1cc(NC(=O)c2ccccc2)n(-c2nc3ccccc3[nH]2)n1` the figure was 0.023% (inactive); with `CCc1ccc(CN(C)C(=O)c2cc(S(=O)(=O)N3CCOCC3)ccc2N2CCCC2)cc1`, 0.027% (inactive); with `CCOC(=O)c1sc2nc(CSc3ccccc3)[nH]c(=O)c2c1C`, 0.048% (inactive). In the case of `Cc1ccc2c(COC(=O)C34CC5CC(CC(C5)C3)C4)cc(=O)oc2c1`, the % fluorescent cells increase is 0% (inactive). As for `S=C(NCc1ccco1)Nc1cccc(Cl)c1Cl`, the % fluorescent cells increase is 0.083% (inactive). For `CC(C)c1ccc(CN2CCN(C(=O)CSc3nnnn3C3CC3)CC2)cc1`, the % fluorescent cells increase was 0.042% (inactive). Still for that read-out and setting: the result for `COc1ccc(CCn2c(C)cc(C(=O)CN3C(=O)C(=O)N(Cc4ccco4)C3=O)c2C)cc1` reads 0% (inactive); that for `Cn1c(=O)c2[nH]c(-c3ccc(S(=O)(=O)O)cc3)nc2n(C)c1=O`, 0.085% (inactive); that for `Oc1cccc(/C=N/NC(=S)NCCN2CCOCC2)c1O`, 0% (inactive). Still for that read-out and setting: the result for `O=c1c(Cl)c(Cl)cnn1Cc1nnc(-c2ccccc2Br)o1` reads -0.006% (inactive). Same read-out and setting: the result for `COC(=O)c1ccc(-n2c(C)cc(C(=O)COC(=O)C3=COCCO3)c2C)cc1` reads -0.007% (inactive). For the molecule `COc1ccc(NC(=O)Nc2ccc3c(c2)C(=O)N([C@H](C)CO)C[C@H](C)[C@H](CN(C)Cc2ccc4c(c2)OCO4)O3)cc1`, the % fluorescent cells increase is -0.166% (inactive). In the case of `COc1cccc(CNC(=O)c2ccc(NC(=O)CC3SC(N4CCCC4)=NC3=O)cc2)c1` (stereo not drawn), the % fluorescent cells increase was 0% (inactive). The same measure, in the same setting: the result for `C[C@@H]1CN([C@H](C)CO)C(=O)c2cc(NS(=O)(=O)c3ccccc3)ccc2O[C@@H](C)CCCCO[C@@H]1CN(C)Cc1ccc2c(c1)OCO2` reads 3.87% (inactive); that for `CC(=O)c1ccc(C(=O)Nc2sc3c(c2C(N)=O)CCN(Cc2ccccc2)C3)cc1`, 8.52% (inactive).

In the case of `COC(=O)CCN1CCC(c2cc(-c3cccc(C(F)(F)F)c3)n[nH]2)CC1`, the % fluorescent cells increase is 0% (inactive). Regarding `COc1ccc(C(=O)Nc2ccc3oc(-c4cccc(F)c4)nc3c2)cc1OC`, the % fluorescent cells increase is -0.003% (inactive). As for `CCN(CC)c1ccc(/C=C/C(=O)C2C(=O)C=C(C)OC2=O)cc1` (stereo not drawn), the % fluorescent cells increase is 1.2% (inactive).

In the case of `N/C(=N\OC(=O)C12CC3CC(CC(C3)C1)C2)c1ccncc1`, the % fluorescent cells increase was -0.004% (inactive). In the case of `CCCN1CCN(C(=O)C2CCN(c3nnc(C)c4c(C)n(-c5ccc(C)cc5)nc34)CC2)CC1`, the % fluorescent cells increase is 0.895% (inactive). For `Cn1c(NC(=O)c2ccc(F)cc2)c(-c2ccccn2)c(=O)c2ccccc21`, the % fluorescent cells increase is 0.007% (inactive). As to `C[C@H](NC(=O)C[C@@H]1CC[C@H](NC(=O)Cc2ccccn2)[C@@H](CO)O1)c1ccccc1`, the % fluorescent cells increase was 0.048% (inactive).

As to `CCOC(=O)c1c(C)[nH]c(N=Nc2ccc(OC)cc2)c1C`, the % fluorescent cells increase was 0.028% (inactive). Same read-out and setting: with `O=C1c2cccc3c([N+](=O)[O-])ccc(c23)C(=O)N1Cc1cccnc1` the figure was 11.8% (inactive); with `COc1ccc2c3c([nH]c2c1)[C@@H](CO)N(Cc1ccccc1F)CC31CN(C(=O)C2CCOCC2)C1`, -0.038% (inactive); with `Cc1cccc(C(=O)NCc2ccc(S(N)(=O)=O)cc2)c1[N+](=O)[O-]`, -0.007% (inactive). For the molecule `COc1ccc(NC(=O)N(C)[C@H]2C[C@H]3c4[nH]c5ccc(-c6ccc(OC)cc6)cc5c4CCN3C(=O)[C@H]2[C@H](C)O)cc1`, the % fluorescent cells increase is 0.507% (inactive). As to `Cc1cc(C(=O)NCc2cc(F)cc3c2OCOC3)nn1C`, the % fluorescent cells increase was -0.003% (inactive). On the same count and under the same terms, with `Cc1ccc(S(=O)(=O)NN2C(=O)/C(=C/c3ccccn3)SC2=S)cc1` the figure was 0.042% (inactive).

With `C=CCNC(=O)N[C@@H](Cc1ccccc1)C(=O)OC`, the % fluorescent cells increase was 1.04% (inactive). With `NS(=O)(=O)c1cccc(-n2cnnn2)c1`, the % fluorescent cells increase is 0% (inactive). As for `CC(C)NC(=O)N(C)C[C@@H]1OCCCC[C@H](C)Oc2ccc(NC(=O)Nc3ccc(C(F)(F)F)cc3)cc2C(=O)N([C@H](C)CO)C[C@@H]1C`, the % fluorescent cells increase is 0% (inactive). On the same count and under the same terms, the result for `C=Cc1cnc([N+](=O)[O-])n1C` reads 0.007% (inactive).

`COc1ccc(NC(=O)Nc2ccc3c(c2)C(=O)N([C@@H](C)CO)C[C@H](C)[C@@H](CN(C)S(=O)(=O)c2ccc(OC)cc2)O3)cc1`: the % fluorescent cells increase was 0% (inactive). As for `O=C1CSC(c2cccnc2)N1Cc1ccc(Cl)cc1Cl` (stereo not drawn), the % fluorescent cells increase is 0% (inactive).

On to `COc1ccc(NC(=O)COc2ccc(C)c(C)c2)cc1S(=O)(=O)N1CCCCC1`, for which the % fluorescent cells increase was 0.026% (inactive). On to `Nc1cc2c3c(cccc3c1)C(=O)N(CCN1CCCC1)C2=O`, for which the % fluorescent cells increase was -0.003% (inactive). Still for that read-out and setting: with `COC(=O)C(C(C)C)N1CCc2c(C)nc3c(C#N)cnn3c21` (stereo not drawn) the figure was 0.064% (inactive); with `CCN(CC)CCCN=Cc1c(O)n(-c2cccc(C)c2)c(=O)c2ccccc12`, -0.011% (inactive).

Regarding `COc1ccccc1CN1CC[C@H]2[C@H](CO)Nc3ccc(C#Cc4ccccc4)cc3[C@H]21`, the % fluorescent cells increase is 0% (inactive). Take `COc1cc(/C=C/c2ccc3cccc(O)c3n2)cc(OC)c1OC`: the % fluorescent cells increase was 0% (inactive). The same measure, in the same setting: with `COc1ccc(-c2ccc(C(=O)NCc3cccs3)c3occc23)c(C)c1` the figure was 0.07% (inactive). Consider `Cc1occc1C(=O)N/N=C/C(Br)=C\c1ccccc1`, for which the % fluorescent cells increase was -0.004% (inactive).

On to `Cc1ccc(C)c(OCCC(=O)Nc2cc(S(=O)(=O)N3CCCCC3)ccc2C)c1`, for which the % fluorescent cells increase is 13% (inactive).

Consider `COCCNC(=S)N(Cc1cccnc1)Cc1ccc(OC)c(OC)c1`, for which the % fluorescent cells increase was 1.33% (inactive).

Turning to `COc1ccc(NC(=O)C(=O)NCCC2CCCCN2S(=O)(=O)c2cccs2)cc1` (stereo not drawn), the % fluorescent cells increase was 2.33% (inactive). `Cc1ccc(C)c(CSC2=NN3CCCC(=O)N=C3S2)c1`: the % fluorescent cells increase was -0.006% (inactive). As to `O=C(CC1CC1)N1CC(=O)N2[C@@H](CO)[C@H](c3ccc(C#Cc4ccc(F)cc4)cc3)[C@@H]2C1`, the % fluorescent cells increase is -0.043% (inactive).
